Key:
Type in all cases: in vivo
[1] = system: barnyardgrass (Echinochloa crus-galli); test: Test A pre-/postemergence plant response
Outline: (§1)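 Visually rated 0–100 injury (100 = complete control) versus untreated plants, ~10 days in greenhouse. Application pre- (soil spray, loam/sand) and postemergence (2–10 cm, 1–2 leaf stage), same timepoint.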

corn (Zea mays) = test: Test A pre-/postemergence plant response
Outline: as §1

[2] = system: giant foxtail (Setaria faberii); test: Test A pre-/postemergence plant response
Outline: as §1

[3] = system: large crabgrass (Digitaria sanguinalis); test: Test A pre-/postemergence plant response
Outline: as §1

[4] = system: morningglory (Ipomoea spp.); test: Test A pre-/postemergence plant response
Outline: as §1

[5] = system: pigweed (Amaranthus retroflexus); test: Test A pre-/postemergence plant response
Outline: as §1

[6] = system: velvetleaf (Abutilon theophrasti); test: Test A pre-/postemergence plant response
Outline: as §1

[7] = system: wheat (Triticum aestivum); test: Test A pre-/postemergence plant response
Outline: as §1

[8] = system: canarygrass (Phalaris minor); test: Test B postemergence plant response; conditions: for Canarygrass plant response rating (0 to 100 scale): 62 g ai/ha, 0 is no effect, 13 to 15 days
Outline: (§2)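 Visual ratings from 0 (no effect) to 100 (complete control), made against controls 13–15 days after treatment, kept in a greenhouse. Compounds were applied postemergence to potted plants at the 1- to 4-leaf stage (2–18 cm).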

[9] = system: chickweed (Stellaria media); test: Test B postemergence plant response; conditions: for Chickweed plant response rating (0 to 100 scale): 62 g ai/ha, 0 is no effect, 13 to 15 days
Outline: as §2

[10] = system: windgrass (Apera spica-venti); test: Test B postemergence plant response; conditions: for Windgrass plant response rating (0 to 100 scale): 62 g ai/ha, postemergence, 0 is no effect, 100 is complete control, 13 to 15 days; for Plant response rating, Windgrass: Postemergence, 125 g ai/ha, scale 0 to 100 (0 no effect, 100 complete control)
Outline: as §2

[11] = system: winter barley (Hordeum vulgare); test: Test B postemergence plant response; conditions: for Barley plant response rating (0 to 100 scale): 62 g ai/ha, 0 is no effect, 13 to 15 days
Outline: as §2

[12] = Postemergence, 125 g ai/ha, 0 to 100 scale where 0 is no effect and 100 is complete control
[13] = Postemergence, 500 g ai/ha, 0 to 100 scale, 0 = no effect, 100 = complete control, approx. ten days
[14] = Preemergence, 125 g ai/ha, 0 to 100 scale, 0 = no effect, 100 = complete control
[15] = Preemergence, 500 g ai/ha, visual injury, 0 to 100 scale (0 no effect, 100 complete control), approx. ten days
[16] = 31 g ai/ha, postemergence, scale 0 to 100, 0 is no effect, 100 is complete control
[17] = postemergence, 100 is complete control
[18] = Postemergence, 125 g ai/ha, scale 0 to 100 (0 no effect, 100 complete control)
[19] = Postemergence, 250 g ai/ha, scale 0 to 100 (0 no effect, 100 complete control)

COCCCn1c(-c2cccc(C)c2)ncc(C(=O)C2=C(O)CCCC2=O)c1=O [Compound 118, 5-[(2-hydroxy-6-oxo-1-cyclohexane-1-yl)carbonyl]-3-(3-methoxypropyl)-2-(3-methylphenyl)-4(3H)-pyrimidinone]
Plant response rating, Barnyardgrass [1, 12]: 90
Plant response rating, Barnyardgrass [1, 13]: 90
Plant response rating, Barnyardgrass [1, 14]: 30
Plant response rating, Barnyardgrass [1, 15]: 90
Plant response rating, Corn (corn (Zea mays); [12]): 0
Plant response rating, Corn (corn (Zea mays); [13]): 30
Plant response rating, Corn (corn (Zea mays); [14]): 0
Plant response rating, Corn (corn (Zea mays); [15]): 0
Plant response rating, Foxtail, Giant [2, 12]: 80
Plant response rating, Foxtail, Giant [2, 13]: 90
Plant response rating, Foxtail, Giant [2, 14]: 10
Plant response rating, Foxtail, Giant [2, 15]: 50
Plant response rating, Crabgrass, Large [3, 12]: 90
Plant response rating, Crabgrass, Large [3, 13]: 90
Plant response rating, Crabgrass, Large [3, 14]: 60
Plant response rating, Crabgrass, Large [3, 15]: 90
Plant response rating, Morningglory [4, 12]: 100
Plant response rating, Morningglory [4, 13]: 100
Plant response rating, Morningglory [4, 14]: 10
Plant response rating, Morningglory [4, 15]: 70
Plant response rating, Pigweed [5, 12]: 100
Plant response rating, Pigweed [5, 13]: 100
Plant response rating, Pigweed [5, 14]: 90
Plant response rating, Pigweed [5, 15]: 100
Plant response rating, Velvetleaf [6, 12]: 100
Plant response rating, Velvetleaf [6, 13]: 100
Plant response rating, Velvetleaf [6, 14]: 70
Plant response rating, Velvetleaf [6, 15]: 80
Plant response rating, Wheat [7, 12]: 0
Plant response rating, Wheat [7, 13]: 10
Plant response rating, Wheat [7, 14]: 0
Plant response rating, Wheat [7, 15]: 0
Plant response rating, Canarygrass [8, 16]: 0
Canarygrass plant response rating (0 to 100 scale) [8, 17]: 0
Plant response rating, Canarygrass [8, 18]: 10
Plant response rating, Canarygrass [8, 19]: 15
Plant response rating, Chickweed [9, 16]: 90
Chickweed plant response rating (0 to 100 scale) [9, 17]: 95
Plant response rating, Chickweed [9, 18]: 95
Plant response rating, Chickweed [9, 19]: 100
Windgrass plant response rating (0 to 100 scale) [10]: 60
Plant response rating, Windgrass [10]: 70
Plant response rating, Barley [11, 16]: 0
Barley plant response rating (0 to 100 scale) [11, 17]: 0
Plant response rating, Barley [11, 18]: 0
Plant response rating, Barley [11, 19]: 0

COCCn1c(-c2cc(F)cc(F)c2)ncc(C(=O)C2=C(O)CCCC2=O)c1=O [Compound 119]
Plant response rating, Barnyardgrass [1, 12]: 80
Plant response rating, Barnyardgrass [1, 13]: 90
Plant response rating, Barnyardgrass [1, 14]: 70
Plant response rating, Barnyardgrass [1, 15]: 100
Plant response rating, Corn (corn (Zea mays); [12]): 0
Plant response rating, Corn (corn (Zea mays); [13]): 70
Plant response rating, Corn (corn (Zea mays); [14]): 20
Plant response rating, Corn (corn (Zea mays); [15]): 30
Plant response rating, Foxtail, Giant [2, 12]: 70
Plant response rating, Foxtail, Giant [2, 13]: 90
Plant response rating, Foxtail, Giant [2, 14]: 90
Plant response rating, Foxtail, Giant [2, 15]: 100
Plant response rating, Crabgrass, Large [3, 12]: 80
Plant response rating, Crabgrass, Large [3, 13]: 90
Plant response rating, Crabgrass, Large [3, 14]: 100
Plant response rating, Crabgrass, Large [3, 15]: 100
Plant response rating, Morningglory [4, 12]: 90
Plant response rating, Morningglory [4, 13]: 100
Plant response rating, Morningglory [4, 14]: 60
Plant response rating, Morningglory [4, 15]: 90
Plant response rating, Pigweed [5, 12]: 100
Plant response rating, Pigweed [5, 13]: 100
Plant response rating, Pigweed [5, 14]: 100
Plant response rating, Pigweed [5, 15]: 100
Plant response rating, Velvetleaf [6, 12]: 100
Plant response rating, Velvetleaf [6, 13]: 100
Plant response rating, Velvetleaf [6, 14]: 90
Plant response rating, Velvetleaf [6, 15]: 100
Plant response rating, Wheat [7, 12]: 50
Plant response rating, Wheat [7, 13]: 60
Plant response rating, Wheat [7, 14]: 20
Plant response rating, Wheat [7, 15]: 60
Plant response rating, Canarygrass [8, 16]: 5
Canarygrass plant response rating (0 to 100 scale) [8, 17]: 5
Plant response rating, Canarygrass [8, 18]: 30
Plant response rating, Canarygrass [8, 19]: 30
Plant response rating, Chickweed [9, 16]: 70
Chickweed plant response rating (0 to 100 scale) [9, 17]: 80
Plant response rating, Chickweed [9, 18]: 100
Plant response rating, Chickweed [9, 19]: 100
Windgrass plant response rating (0 to 100 scale) [10]: 85
Plant response rating, Windgrass [10]: 100
Plant response rating, Barley [11, 16]: 0
Barley plant response rating (0 to 100 scale) [11, 17]: 0
Plant response rating, Barley [11, 18]: 5
Plant response rating, Barley [11, 19]: 5
